Results reported in patent US7964531B2, “3-phenoxy-4-pyridazinol derivatives and herbicidal composition containing the same” (Mitsui Chemicals Agro, Inc., priority 2001, dated 2011).
One block for each molecule: values may come before it.

Key:
[1] = tested on: transplanted paddy-field rice; assay: Test Example 1: crop injury against transplanted paddy-field rice; assay type: in vivo; details: wettable powder applied 3 days after transplanting, judged after 25 days
Protocol: (§1) A paddy soil was filled in 1/10,000 are pot, and seeds of barnyardgrass (Echinochloa oryzicola Vasing.), Scirpus joncoides and annual broad-leaved weeds (Lindernia spp., Rotala indica) which are awaken from dormancy were mixed at the surface layer of 1 cm. Also, tuber of Cyperus serotinus which is germinated was planted, and further seedlings of paddy-field rice at 2.2-leaf stage were transplanted, and they were grown under the flooded condition in a greenhouse. After 3 days from transplanting, a predetermined chemical dosage of the wettable powder prepared in accordance with Preparation example 1 was diluted in water, and the solution was applied to the pot and herbicidal effects and crop injury against transplanted paddy-field rice were judged after 25 days from the treatment. Also, 3-(2-allylphenoxy)-6-chloro-4-methoxypyridazine described in Chemical Pharmaceutical Bulletin, 1972, vol. 20, No. 10, pp. 2191-2203 was used as Comparative compound. Incidentally, herbicidal effects and crop injury against transplanted paddy-field rice were judged by the following judgment standard, and “-” in the table means no test was carried out.
(§2) Judgment Standard • 0: Growth inhibition rate; 0 to 10% • 1: Growth inhibition rate; 11 to 30% • 2: Growth inhibition rate; 31 to 50% • 3: Growth inhibition rate; 51 to 70% • 4: Growth inhibition rate; 71 to 90% • 5: Growth inhibition rate; 91 to 100%.

[2] = tested on: annual broad-leaved weeds (Lindernia spp., Rotala indica); assay: Test Example 1: herbicidal effects, paddy-field pot test; assay type: in vivo; details: wettable powder applied 3 days after transplanting, judged after 25 days
Protocol: as §1, §2

[3] = tested on: barnyardgrass (Echinochloa oryzicola Vasing.); assay: as above; assay type: in vivo; details: wettable powder applied 3 days after transplanting, judged after 25 days
Protocol: as §1, §2

Cyperus serotinus = assay: as above; assay type: in vivo; details: wettable powder applied 3 days after transplanting, judged after 25 days
Protocol: as §1, §2

melting point: 198 to 200 °C
SMILES: C=C(C)Cc1cccc(Cl)c1Oc1nnc(Cl)cc1O [Compound No. 746, 6-Chloro-3-[2-chloro-6-(2-methyl-2-propenyl)phenoxy]-4-pyridazinol]

melting point: 173 to 174 °C
SMILES: CCOCc1ccccc1Oc1nnc(Cl)cc1O [Compound No. 325, 6-Chloro-3-[2-(ethoxymethyl)phenoxy]-4-pyridazinol]

melting point: 199 to 201 °C
SMILES: COc1cccc(Oc2nnc(Cl)cc2O)c1OC [Compound No. 503, 6-Chloro-3-(2,3-dimethoxyphenoxy)-4-pyridazinol]

melting point: 151.5 to 152.5 °C
SMILES: CCCCCc1ccccc1Oc1nnc(Cl)cc1O [Compound No. 137, 6-Chloro-3-(2-pentylphenoxy)-4-pyridazinol]

melting point: 242 to 244 °C
SMILES: CCc1cccc(I)c1Oc1nnc(Cl)cc1O [Compound No. 781, 6-Chloro-3-(2-ethyl-6-iodophenoxy)-4-pyridazinol]

melting point: 134 to 137 °C
SMILES: CCCc1cccc(F)c1Oc1nnc(Cl)cc1O [Compound No. 716, 6-Chloro-3-(2-fluoro-6-propylphenoxy)-4-pyridazinol]

melting point: 124 to 127 °C
SMILES: CN(C)c1ccc(C=O)c(Oc2nnc(Cl)cc2O)c1 [Compound No. 692, 2-[(6-Chloro-4-hydroxy-3-pyridazinyl)oxy]-4-(dimethylamino)benzaldehyde]

melting point: 191 to 194 °C
SMILES: COc1ccccc1Oc1nnc(Cl)cc1O [Compound No. 385, 6-Chloro-3-(2-methoxyphenoxy)-4-pyridazinol]

melting point: 250 to 253 °C
SMILES: COc1ccc(C2CC2)c(Oc2nnc(Cl)cc2O)c1C [Compound No. 1069, 6-Chloro-3-(6-cyclopropyl-3-methoxy-2-methylphenoxy)-4-pyridazinol]

melting point: 126 to 134 °C
SMILES: COc1ccc(C)cc1Oc1nnc(Cl)cc1O [Compound No. 704, 6-Chloro-3-(2-methoxy-5-methylphenoxy)-4-pyridazinol]

melting point: 240 to 247 °C
SMILES: CC(C)(C)c1cccc(Br)c1Oc1nnc(Cl)cc1O [Compound No. 761, 3-(2-Bromo-6-tert-butylphenoxy)-6-chloro-4-pyridazinol]

melting point: 228 to 230 °C
SMILES: CC1CCc2c(Oc3nnc(Cl)cc3O)cccc21 (stereo not drawn) [Compound No. 510, 6-Chloro-3-[(1-methyl-2,3-dihydro-1H-inden-4-yl)oxy]-4-pyridazinol]

melting point: 220 to 223 °C
SMILES: CC1(C)Cc2cccc(Oc3nnc(Cl)cc3O)c2C1 [Compound No. 513, 6-Chloro-3-[(2,2-dimethyl-2,3-dihydro-1H-inden-4-yl)oxy]-4-pyridazinol]

melting point: 197 to 198 °C
SMILES: Cc1cccc(Oc2nnc(Cl)cc2O)c1C1CC1 [Compound No. 472, 6-Chloro-3-(2-cyclopropyl-3-methylphenoxy)-4-pyridazinol]

The next lines start with the molecule.

SMILES: Oc1cc(Cl)nnc1Oc1c(F)cc(C2CC2)cc1C1CC1 [Example 313]
Crop injury against transplanted rice ([1]; chemical dosage 20 g/a): 0 (Growth inhibition rate; 0 to 10%)
Herbicidal effects Broad leaf ([2]; chemical dosage 20 g/a): 5 (Growth inhibition rate; 91 to 100%)
Herbicidal effects Barnyard grass ([3]; chemical dosage 20 g/a): 1 (Growth inhibition rate; 11 to 30%)

SMILES: Cc1cc(C)c(Oc2nnc(Cl)cc2O)c(Br)c1 [Example 315]
Crop injury against transplanted rice ([1]; chemical dosage 20 g/a): 0 (Growth inhibition rate; 0 to 10%)
Herbicidal effects Broad leaf ([2]; chemical dosage 20 g/a): 5 (Growth inhibition rate; 91 to 100%)
Herbicidal effects Barnyard grass ([3]; chemical dosage 20 g/a): 4 (Growth inhibition rate; 71 to 90%)
Herbicidal effects Cyperus serotinus (Cyperus serotinus; chemical dosage 20 g/a): 5 (Growth inhibition rate; 91 to 100%)

SMILES: Oc1cc(Cl)nnc1Oc1cccc2c1CC1CC21 (stereo not drawn) [Example 15]
Crop injury against transplanted rice ([1]; chemical dosage 10 g/a): 0 (Growth inhibition rate; 0 to 10%)
Herbicidal effects Broad leaf ([2]; chemical dosage 10 g/a): 5 (Growth inhibition rate; 91 to 100%)
Herbicidal effects Barnyard grass ([3]; chemical dosage 10 g/a): 1 (Growth inhibition rate; 11 to 30%)
Herbicidal effects Cyperus serotinus (Cyperus serotinus; chemical dosage 10 g/a): 5 (Growth inhibition rate; 91 to 100%)

SMILES: Cc1ccc(Oc2nnc(Cl)cc2O)c(C2CC2)c1 [Example 202]
Crop injury against transplanted rice ([1]; chemical dosage 10 g/a): 0 (Growth inhibition rate; 0 to 10%)
Herbicidal effects Broad leaf ([2]; chemical dosage 10 g/a): 5 (Growth inhibition rate; 91 to 100%)
Herbicidal effects Barnyard grass ([3]; chemical dosage 10 g/a): 2 (Growth inhibition rate; 31 to 50%)
Herbicidal effects Cyperus serotinus (Cyperus serotinus; chemical dosage 10 g/a): 4 (Growth inhibition rate; 71 to 90%)

SMILES: Oc1cc(Cl)nnc1Oc1c(Br)cccc1Br [Example 248]
Crop injury against transplanted rice ([1]; chemical dosage 5 g/a): 0 (Growth inhibition rate; 0 to 10%)
Crop injury against transplanted rice ([1]; chemical dosage 10 g/a): 0 (Growth inhibition rate; 0 to 10%)
Herbicidal effects Broad leaf ([2]; chemical dosage 5 g/a): 5 (Growth inhibition rate; 91 to 100%)
Herbicidal effects Broad leaf ([2]; chemical dosage 10 g/a): 5 (Growth inhibition rate; 91 to 100%)
Herbicidal effects Barnyard grass ([3]; chemical dosage 5 g/a): 1 (Growth inhibition rate; 11 to 30%)
Herbicidal effects Barnyard grass ([3]; chemical dosage 10 g/a): 3 (Growth inhibition rate; 51 to 70%)
Herbicidal effects Cyperus serotinus (Cyperus serotinus; chemical dosage 5 g/a): 5 (Growth inhibition rate; 91 to 100%)
Herbicidal effects Cyperus serotinus (Cyperus serotinus; chemical dosage 10 g/a): 5 (Growth inhibition rate; 91 to 100%)

SMILES: COc1cccc(Oc2nnc(Cl)cc2OS(=O)(=O)c2ccc(C)cc2)c1 [Compound No. 2238, 6-Chloro-3-(3-methoxyphenoxy)-4-pyridazinyl 4-methylbenzenesulfonate]
melting point: 89 to 90 °C

SMILES: CCc1cc(I)cc(I)c1Oc1nnc(Cl)cc1O [Example 316]
Crop injury against transplanted rice ([1]; chemical dosage 10 g/a): 0 (Growth inhibition rate; 0 to 10%)
Crop injury against transplanted rice ([1]; chemical dosage 20 g/a): 0 (Growth inhibition rate; 0 to 10%)
Herbicidal effects Broad leaf ([2]; chemical dosage 10 g/a): 5 (Growth inhibition rate; 91 to 100%)
Herbicidal effects Broad leaf ([2]; chemical dosage 20 g/a): 5 (Growth inhibition rate; 91 to 100%)
Herbicidal effects Barnyard grass ([3]; chemical dosage 10 g/a): 2 (Growth inhibition rate; 31 to 50%)
Herbicidal effects Barnyard grass ([3]; chemical dosage 20 g/a): 3 (Growth inhibition rate; 51 to 70%)

SMILES: Cc1cccc(C2CC2)c1Oc1nnc(Cl)cc1OC(=O)C(C)(C)C [Compound No. 1207, 6-Chloro-3-(2-cyclopropyl-6-methylphenoxy)-4-pyridazinyl pivalate]
melting point: 84 to 87 °C

SMILES: Cc1ccccc1Oc1nnc(Cl)cc1OC(=O)c1ccc(Cl)cc1Cl [Compound No. 1603, 6-Chloro-3-(2-methylphenoxy)-4-pyridazinyl 2,4-dichlorobenzoate]
melting point: 81 to 82.5 °C

SMILES: Cc1cc2c(c(Oc3nnc(Cl)cc3O)c1C)CCC2 [Compound No. 1129, 6-Chloro-3-[(5,6-dimethyl-2,3-dihydro-1H-inden-4-yl)oxy]-4-pyridazinol]
melting point: 210 to 213 °C

SMILES: CC(C)c1cc(Oc2nnc(Cl)cc2O)cc(C(C)C)c1 [Compound No. 642, 6-Chloro-3-(3,5-diisopropylphenoxy)-4-pyridazinol]
melting point: 231 to 235 °C

SMILES: Cc1cccc(C2CC2)c1Oc1nnc(Cl)cc1OC(=O)N(CCC#N)CCC#N
melting point: 159 to 161 °C

SMILES: COc1cccc(Oc2nnc(Cl)cc2OC(=O)c2ccccc2C)c1 [Compound No. 1458, 6-Chloro-3-(3-methoxyphenoxy)-4-pyridazinyl 2-methylbenzoate]
melting point: 66 to 67 °C

SMILES: Cc1ccc(S(=O)(=O)Oc2cc(Cl)nnc2Oc2ccccc2C2CCCCC2)cc1 [Compound No. 2230, 6-Chloro-3-(2-cyclohexylphenoxy)-4-pyridazinyl 4-methylbenzenesulfonate]
melting point: 120 to 121 °C

SMILES: N#CC1(c2ccccc2Oc2nnc(Cl)cc2O)CCC1 [Compound No. 287, 1-{2-[(6-Chloro-4-hydroxy-3-pyridazinyl)oxy]phenyl}cyclobutanecarbonitrile]
melting point: 213 to 215 °C

SMILES: Cc1cccc(C2CC2)c1Oc1nnc(Cl)cc1OC(=O)n1c2ccccc2c2ccccc21 [Compound No. 3714, 6-Chloro-3-(2-cyclopropyl-6-methylphenoxy)-4-pyridazinyl 9H-carbazole-9-carboxylate]
melting point: 157 to 159 °C

SMILES: CCc1ccc2c(c1Oc1nnc(Cl)cc1O)CCC2 [Compound No. 1089, 6-Chloro-3-[(5-ethyl-2,3-dihydro-1H-inden-4-yl)oxy]-4-pyridazinol]
melting point: 193 to 196 °C

SMILES: Cc1ccc(S(=O)(=O)Oc2cc(Cl)nnc2Oc2ccc(Cl)cc2C)cc1 [Compound No. 2246, 6-Chloro-3-(4-chloro-2-methylphenoxy)-4-pyridazinyl 4-methylbenzenesulfonate]
melting point: 115 to 116 °C

SMILES: CCc1cc(I)cc(I)c1Oc1nnc(Cl)cc1O [Compound No. 1120, 6-Chloro-3-(2-ethyl-4,6-diiodophenoxy)-4-pyridazinol]
melting point: 142 to 144 °C

SMILES: Cc1ccc(S(=O)(=O)Oc2cc(Cl)nnc2Oc2c(C)cccc2C)cc1 [Compound No. 2263, 6-Chloro-3-(2,6-dimethylphenoxy)-4-pyridazinyl 4-methylbenzenesulfonate]
melting point: 89 to 90 °C

SMILES: CC(C)c1cccc(I)c1Oc1nnc(Cl)cc1O [Example 258]
Crop injury against transplanted rice ([1]; chemical dosage 10 g/a): 0 (Growth inhibition rate; 0 to 10%)
Herbicidal effects Broad leaf ([2]; chemical dosage 10 g/a): 5 (Growth inhibition rate; 91 to 100%)
Herbicidal effects Barnyard grass ([3]; chemical dosage 10 g/a): 3 (Growth inhibition rate; 51 to 70%)
